Data set [1] has as its system male Sprague-Dawley rats with myocardial infarction (left coronary artery ligation). The data set can be described thus: General characteristics and histology after eight weeks of treatment in rat coronary artery ligation (MI) model. The data set is classed as in vivo. Here is the method: (§1) The Animal Research Committee of the University of Groningen approved this study. Left coronary artery ligations were performed in 39 male Sprague-Dawley rats weighing 250 to 300 g (Harlan; Zeist, the Netherlands).^14 Perioperative mortality was 49%. Two weeks after induction of MI, rats were randomly allocated to intravenous infusion of either Ang-(1-7) (24 μg/kg per hour; n=10) or saline (n=10) by osmotic minipumps (Alzet 2004). Sham-operated controls (n=10) received saline. After eight weeks of treatment, hemodynamic studies were performed under isoflurane anesthesia with a microtip pressure transducer,^15 coronary flow was measured in a Langendorff setup,^14 endothelial function was tested in isolated aortic rings,^14 and plasma Ang-(1-7) levels were measured by radioimmunoassay.^16
Midventricular slices were processed for histochemical analysis. Infarct size was determined on picrosirius red/fast green-stained sections and was expressed as the percentage of scar length of total left ventricular circumference.^14 Rats with infarcts smaller than 20% were excluded (n=3 for Ang-(1-7) and n=1 for saline-treated rats). Capillary density was determined on sections stained with biotin-labeled Griffonia siinplicifolia lectin I (GSL-I) and hematoxylin and was expressed as the number of capillaries per mm^2. Myocyte cross-sectional area was measured on hematoxylin/eosin-stained sections.
Data are presented as mean±SEM. Statistical analysis between the groups was performed by one-way ANOVA followed by Bonferroni's t test. Differences in dose-response curves were tested by ANOVA for repeated measures with Greenhouse-Geisser correction for asphericity. Differences were considered significant at P<0.05.

Data set [2] can be described thus: Plasma Ang-(1-7) levels by radioimmunoassay at end of intravenous infusion. The note with it: MI rats, iv infusion 24 μg/kg per hour. Format: in vivo, rat. Here is the method: as §1
For data set [3], the system named is male Sprague-Dawley rats with myocardial infarction (left coronary artery ligation). The data set can be described thus: In vivo hemodynamic studies under isoflurane anesthesia with microtip pressure transducer in MI rats. Also noted: species or system rat. On the procedure:
as §1
(§2) After eight weeks of treatment, cardiac function was measured in vivo in anesthetized rats. […] Coronary flow was measured ex vivo in a Langendorff setup. […] Coronary endothelial function and maximal coronary flow were tested by a two-minute infusion of 3×10^−8 mol/L bradykinin and 10^−5 mol/L adenosine, respectively.

For data set [4], the system named is hearts of infarcted rats (Langendorff setup). The data set can be described thus: Ex vivo coronary flow in a Langendorff setup, hearts of treated MI rats. Also on record: species or system rat. On the procedure:
as §1, §2

Data set [5] relates to isolated aortic rings of infarcted rats. The data set can be described thus: Endothelium-dependent relaxation in isolated aortic rings of treated MI rats. The data set is classed as in vivo, rat. The note with it: aortic rings of MI rats after eight weeks of Ang-(1-7); P<0.05 versus MI control. On the procedure: as §1
Endothelial dysfunction is a key feature in heart failure.^14 To examine the effects of Ang-(1-7) treatment on this aspect of cardiac failure, we investigated endothelium-dependent relaxation in isolated aortic rings. Phenylephrine elicited similar contractile responses in all three groups (data not shown). […] The relaxation in response to the endothelium independent vasodilator NaNO2 (10^−2 mol/L) was equal in the three groups (data not shown).

The mark [6] stands for this setting: Ang-(1-7) 24 μg/kg per hour iv, eight weeks, mean ± SEM.

The compound `CC[C@H](C)[C@H](NC(=O)[C@H](Cc1ccc(O)cc1)NC(=O)[C@@H](NC(=O)[C@H](CCCNC(=N)N)NC(=O)[C@@H](N)CC(=O)O)C(C)C)C(=O)N[C@@H](Cc1c[nH]cn1)C(=O)N1CCC[C@H]1C(=O)O` [Ang-(1-7), angiotensin-(1-7)] showed a capillary density in data set [1] (Ang-(1-7) 24 μg/kg per hour iv, eight weeks, GSL-I lectin stain, mean ± SEM) of 2578 ± 176 N/mm^2. Further, the myocyte cross-sectional area in data set [1] (Ang-(1-7) 24 μg/kg per hour iv, eight weeks, hematoxylin/eosin-stained sections, mean ± SEM) is given as 409 ± 21. Also, in data set [1] (setting [6]), the “LVW/BW (left ventricular weight body weight ratio)” value stood at 3.42 ± 0.10 mg/g and the “infarct size (percentage of scar length of total left ventricular circumference)” value stood at 29.6 ± 3.3%. Besides, the “myocyte cross-sectional area increase after infarction, in words” value in data set [1] (eight weeks of Ang-(1-7)) is listed as “attenuated to a nonsignificant level”. Also, in data set [1] (eight weeks of treatment), the “capillary density versus saline-treated MI group, in words” value is on record as “did not differ” and the “infarct size versus saline-treated MI group, in words” value is listed as “did not differ”. For the same compound, the “[Ang-(1-7)] plasma concentration of angiotensin-(1-7)” value in data set [2] (end of eight weeks of treatment, mean ± SEM) was 917.8 ± 194.1 pmol/L. For the same compound, the “increase of plasma levels of the peptide compared with MI controls” value in data set [2] (end of treatment) is recorded as 40 fold. Moreover, the level at time molar at 1344 h in data set [2] (male, Sprague-Dawley, rat, plasma, 24 ug/kg per hour, end of eight weeks of treatment, mean ± SEM, read-out: [Ang-(1-7)] plasma concentration of angiotensin-(1-7)) turned out to be 0.918 ± 0.194 nM. For the same compound, the “mean arterial pressure, in words” value in data set [3] (MI rats infused with Ang-(1-7), eight weeks) was “an increase in mean arterial pressure was found”. In addition, in data set [3] (MI rats, eight weeks of Ang-(1-7) treatment), the “reduction in left ventricular end-diastolic pressure” value came to 40%. The “cardiac function (hemodynamic parameters LVP, LVEDP, MAP, +dP/dt, −dP/dt) compared with sham, in words” value in data set [3] (anesthetized MI rats after eight weeks of treatment) was “none of these parameters were significantly deteriorated, except the systolic dP/dt”. Moreover, in data set [4] (Langendorff, MI rats after eight weeks of Ang-(1-7)), the “baseline coronary flow compared with sham-operated hearts, in words” value is given as “almost completely preserved”. The “maximal coronary flow after adenosine infusion compared with sham, in words” value in data set [4] (Langendorff, adenosine 10^−5 mol/L, MI rats after eight weeks of Ang-(1-7)) is listed as “the difference did not reach statistical significance”. In addition, the “bradykinin-dependent coronary flow compared with sham, in words” value in data set [4] (Langendorff, bradykinin 3×10^−8 mol/L, MI rats after eight weeks of Ang-(1-7)) is “not significantly impaired”. For the same compound, in data set [4] (hearts of MI rats after eight weeks of Ang-(1-7) 24 μg/kg per hour iv, baseline), the “Ex vivo coronary flow, baseline” value is given as 8.2 ± 0.6 ml/min per g ventricular weight. Also, in data set [4] (hearts of MI rats after eight weeks of Ang-(1-7), two-minute infusion of adenosine 10^−5 M (maximal coronary flow)), the “Ex vivo coronary flow, adenosine 10^−5 M” value is given as 12.3 ± 0.8 ml/min per g ventricular weight. For the same compound, the “Ex vivo coronary flow, bradykinin 3 × 10^−8 M” value in data set [4] (hearts of MI rats after eight weeks of Ang-(1-7), two-minute infusion of bradykinin 3 × 10^−8 M (coronary endothelial function)) is reported as 11.1 ± 0.7 ml/min per g ventricular weight. Further, in data set [5], the “metacholine-induced relaxation of phenylephrine pre-contracted aortic rings, in words” value was “identical to sham rats”.

Source of the values: patent publication US20050119180A1, “Use of angiotensin 1-7 for enhancing cardiac function” (priority 2002, published 2005).
